# Test results published in the supplement of paper PMC10307832.
# Compound: CCOC(=O)CCNc1cc(N2CCc3ccccc3CC2)nc(-c2ccccn2)n1 [GSK-J4] + Cc1nc(Nc2ncc(C(=O)Nc3c(C)cccc3Cl)s2)cc(N2CCN(CCO)CC2)n1 [Dasatinib] (partner 0.075 µM)
# Test: relative viability (nuclei count vs DMSO), 5 days (fraction); higher = more cells survive
# Conditions: first compound 0.5 µM
# Method in brief: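 Lung cancer cell lines, seeded in 1536-well plates, were treated the following day by pin tool with a single drug or with five library-drug doses (not always all listed) in √10 steps on top of a fixed anchor-drug dose. Cells were fixed and nuclei stained in one step after 5 days, and nuclei were counted. Relative viability is the nuclei count for treated wells divided by that for vehicle wells, reported as medians of duplicate plates.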
row,Cell Line,relative viability
1,NCI-H460,0.524
2,LU99A,0.441
3,NCI-H2085,0.288
4,A-427,0.609
5,NCI-H520,0.217
6,NCI-H838,0.325
7,NCI-H596,0.562
8,NCI-H3122,0.826
9,BEN,0.398
10,NCI-H1395,0.402
11,201T,0.576
12,NCI-H1993,0.613
13,NCI-H1355,0.749
14,NCI-H2405,0.231
15,NCI-H1437,0.426
16,NCI-H661,0.862
17,COR-L 105,0.338
18,H3255,0.361
19,NCI-H2347,0.316
20,NCI-H1975,0.335
21,NCI-H441,0.537
22,NCI-H1650,0.34
23,NCI-H1915,0.342
24,NCI-H2087,0.747
25,NCI-H1793,0.433
26,RERF-LC-KJ,0.68
27,EMC-BAC-2,0.317
28,LCLC-97TM1,0.596
29,NCI-H1651,0.537
30,NCI-H2170,0.542

# Same assay, conditions: first compound 1.581 µM
row,Cell Line,relative viability
1,CAL-12T,0.477
2,HOP-62,0.639
3,NCI-H460,0.445
4,LU99A,0.582
5,NCI-H2085,0.273
6,NCI-H520,0.191
7,NCI-H838,0.24
8,NCI-H596,0.611
9,NCI-H3122,0.722
10,BEN,0.362
11,NCI-H1395,0.428
12,201T,0.6
13,NCI-H1993,0.649
14,NCI-H1355,0.654
15,NCI-H2405,0.327
16,NCI-H1437,0.438
17,NCI-H661,0.755
18,COR-L 105,0.38
19,H3255,0.364
20,NCI-H2347,0.286
21,NCI-H1975,0.361
22,NCI-H441,0.537
23,NCI-H1650,0.261
24,NCI-H1915,0.36
25,NCI-H1793,0.365
26,RERF-LC-KJ,0.774
27,EMC-BAC-2,0.333
28,LCLC-97TM1,0.724
29,NCI-H1651,0.306
30,NCI-H2170,0.744

# Same assay, conditions: first compound 5 µM
row,Cell Line,relative viability
1,CAL-12T,0.465
2,HCC-15,0.526
3,HOP-62,0.269
4,NCI-H460,0.471
5,NCI-H2085,0.388
6,A-427,0.363
7,NCI-H520,0.154
8,NCI-H838,0.23
9,NCI-H596,0.645
10,NCI-H3122,0.788
11,NCI-H1395,0.382
12,201T,0.639
13,NCI-H1993,0.716
14,NCI-H1355,0.342
15,NCI-H1437,0.353
16,NCI-H661,0.636
17,COR-L 105,0.276
18,H3255,0.416
19,NCI-H2347,0.572
